# According to US20230085307A1, “PYRIDAZINONE COMPOUND AND HERBICIDE” (NISSAN CHEMICAL CORPORATION, priority 2019, published 2023):
# Assays:
# [1] = system: barnyard grass; assay: Test Example 3: herbicidal effect by foliage application, Wagner pot (Table 18, symbol H); type: in vivo, barnyard grass (Echinochloa crus-galli); settings: amount of applied herbicide 320 g/ha
# In short: (§1)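 Plants were sown in alluvial soil held under 0.1–0.5 cm standing water and grown 14 days in a greenhouse at 25–30 °C. An emulsifiable formulation, water-diluted to the set dose, was then sprayed onto the foliage, and effects were scored three weeks later using previously defined criteria.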
# [2] = system: Chinese sprangletop; assay: Test Example 3: herbicidal effect by foliage application, Wagner pot (Table 18, symbol D); type: in vivo, chinese sprangletop (Leptochloa chinensis); settings: amount of applied herbicide 320 g/ha
# In short: as §1
# [3] = system: rice flat sedge; assay: Test Example 3: herbicidal effect by foliage application, Wagner pot (Table 18, symbol E); type: in vivo, rice flat sedge (Cyperus iria); settings: amount of applied herbicide 320 g/ha
# In short: as §1
# [4] = system: southern crabgrass; assay: Test Example 4: herbicidal effect by soil treatment (Table 19, symbol F); type: in vivo, southern crabgrass (Digitaria ciliaris); settings: amount of applied herbicide 320 g/ha
# In short: (§2)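 In this soil treatment, the formulated compound reached the seeds only through the soil: seeds were buried about 1.5 cm deep in sterilized diluvial soil, then the diluted emulsion was sprayed over the surface. After three weeks at 25° C. to 30° C. in a greenhouse, effects were graded on criteria from an earlier test.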
# [5] = system: green foxtail; assay: Test Example 4: herbicidal effect by soil treatment (Table 19, symbol G); type: in vivo, green foxtail (Setaria viridis); settings: amount of applied herbicide 320 g/ha
# In short: as §2
# [6] = system: barnyard grass; assay: Test Example 4: herbicidal effect by soil treatment (Table 19, symbol H); type: in vivo, barnyard grass (Echinochloa crus-galli); settings: amount of applied herbicide 320 g/ha
# In short: as §2
# [7] = system: wild oat; assay: Test Example 4: herbicidal effect by soil treatment (Table 19, symbol I); type: in vivo, wild oat (Avena fatua); settings: amount of applied herbicide 320 g/ha
# In short: as §2
# [8] = system: blackgrass; assay: Test Example 4: herbicidal effect by soil treatment (Table 19, symbol J); type: in vivo, blackgrass (Alopecurus myosuroides); settings: amount of applied herbicide 320 g/ha
# In short: as §2
# [9] = system: Italian ryegrass; assay: Test Example 4: herbicidal effect by soil treatment (Table 19, symbol K); type: in vivo, Italian ryegrass (Lolium multiflorum); settings: amount of applied herbicide 320 g/ha
# In short: as §2
# [10] = system: windgrass; assay: Test Example 4: herbicidal effect by soil treatment (Table 19, symbol L); type: in vivo, windgrass (Apera spica-venti); settings: amount of applied herbicide 320 g/ha
# In short: as §2
# [11] = system: velvetleaf; assay: Test Example 4: herbicidal effect by soil treatment (Table 19, symbol M); type: in vivo, velvetleaf (Abutilon theophrasti); settings: amount of applied herbicide 320 g/ha
# In short: as §2
# [12] = system: redroot pigweed; assay: Test Example 4: herbicidal effect by soil treatment (Table 19, symbol N); type: in vivo, redroot pigweed (Amaranthus retroflexus); settings: amount of applied herbicide 320 g/ha
# In short: as §2
# [13] = system: lambsquarters; assay: Test Example 4: herbicidal effect by soil treatment (Table 19, symbol O); type: in vivo, lambsquarters (Chenopodium album); settings: amount of applied herbicide 320 g/ha
# In short: as §2
# [14] = system: chickweed; assay: Test Example 4: herbicidal effect by soil treatment (Table 19, symbol P); type: in vivo, common chickweed (Stellaria media); settings: amount of applied herbicide 320 g/ha
# In short: as §2
# [15] = system: persian speedwell; assay: Test Example 4: herbicidal effect by soil treatment (Table 19, symbol R); type: in vivo, Persian speedwell (Veronica persica); settings: amount of applied herbicide 320 g/ha
# In short: as §2
# [16] = system: southern crabgrass; assay: Test Example 5: herbicidal effect by foliage application, plastic box (Table 20, symbol F); type: in vivo, southern crabgrass (Digitaria ciliaris); settings: foliage application, 320 g/ha, evaluated three weeks after application
# In short: (§3)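 Plants were sown into sterilized diluvial soil under about 1.5 cm cover and kept in a greenhouse at 25° C. to 30° C. Fourteen days on, foliage received an even spray of the diluted emulsion. Herbicidal or crop effect was judged three weeks afterwards.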
# [17] = system: green foxtail; assay: Test Example 5: herbicidal effect by foliage application, plastic box (Table 20, symbol G); type: in vivo, green foxtail (Setaria viridis); settings: foliage application, 320 g/ha, evaluated three weeks after application
# In short: as §3
# [18] = system: barnyard grass; assay: Test Example 5: herbicidal effect by foliage application, plastic box (Table 20, symbol H); type: in vivo, barnyard grass (Echinochloa crus-galli); settings: foliage application, 320 g/ha, evaluated three weeks after application
# In short: as §3
# [19] = system: wild oat; assay: Test Example 5: herbicidal effect by foliage application, plastic box (Table 20, symbol I); type: in vivo, wild oat (Avena fatua); settings: foliage application, 320 g/ha, evaluated three weeks after application
# In short: as §3
# [20] = system: blackgrass; assay: Test Example 5: herbicidal effect by foliage application, plastic box (Table 20, symbol J); type: in vivo, blackgrass (Alopecurus myosuroides); settings: foliage application, 320 g/ha, evaluated three weeks after application
# In short: as §3
# [21] = system: Italian ryegrass; assay: Test Example 5: herbicidal effect by foliage application, plastic box (Table 20, symbol K); type: in vivo, Italian ryegrass (Lolium multiflorum); settings: foliage application, 320 g/ha, evaluated three weeks after application
# In short: as §3
# [22] = system: windgrass; assay: Test Example 5: herbicidal effect by foliage application, plastic box (Table 20, symbol L); type: in vivo, windgrass (Apera spica-venti); settings: foliage application, 320 g/ha, evaluated three weeks after application
# In short: as §3
# [23] = system: velvetleaf; assay: Test Example 5: herbicidal effect by foliage application, plastic box (Table 20, symbol M); type: in vivo, velvetleaf (Abutilon theophrasti); settings: foliage application, 320 g/ha, evaluated three weeks after application
# In short: as §3
# [24] = system: redroot pigweed; assay: Test Example 5: herbicidal effect by foliage application, plastic box (Table 20, symbol N); type: in vivo, redroot pigweed (Amaranthus retroflexus); settings: foliage application, 320 g/ha, evaluated three weeks after application
# In short: as §3
# [25] = system: lambsquarters; assay: Test Example 5: herbicidal effect by foliage application, plastic box (Table 20, symbol O); type: in vivo, lambsquarters (Chenopodium album); settings: foliage application, 320 g/ha, evaluated three weeks after application
# In short: as §3
# [26] = system: chickweed; assay: Test Example 5: herbicidal effect by foliage application, plastic box (Table 20, symbol P); type: in vivo, common chickweed (Stellaria media); settings: foliage application, 320 g/ha, evaluated three weeks after application
# In short: as §3
# [27] = system: persian speedwell; assay: Test Example 5: herbicidal effect by foliage application, plastic box (Table 20, symbol R); type: in vivo, Persian speedwell (Veronica persica); settings: foliage application, 320 g/ha, evaluated three weeks after application
# In short: as §3
compound,measurement,setting,value
Cc1nn(C)c(=O)c(-c2c(-c3cccc(C(F)(F)F)c3)sc3ccc(F)cc23)c1O [2-231],herbicidal effect on H: barnyard grass,[1],4 (Herbicidal rate of 70% or more and less than 90%)
same,herbicidal effect on D: Chinese sprangletop,[2],3 (Herbicidal rate of 40% or more and less than 70%)
same,herbicidal effect on E: rice flat sedge,[3],5 (Herbicidal rate of 90% or more (almost completely withered))
same,herbicidal effect on F: southern crabgrass,[4],0 (Herbicidal rate of 5% or less (almost no effect))
same,herbicidal effect on G: green foxtail,[5],0 (Herbicidal rate of 5% or less (almost no effect))
same,herbicidal effect on H: barnyard grass,[6],0 (Herbicidal rate of 5% or less (almost no effect))
same,herbicidal effect on I: wild oat,[7],0 (Herbicidal rate of 5% or less (almost no effect))
same,herbicidal effect on J: blackgrass,[8],0 (Herbicidal rate of 5% or less (almost no effect))
same,herbicidal effect on K: Italian ryegrass,[9],0 (Herbicidal rate of 5% or less (almost no effect))
same,herbicidal effect on L: windgrass,[10],0 (Herbicidal rate of 5% or less (almost no effect))
same,herbicidal effect on M: velvetleaf,[11],0 (Herbicidal rate of 5% or less (almost no effect))
same,herbicidal effect on N: redroot pigweed,[12],0 (Herbicidal rate of 5% or less (almost no effect))
same,herbicidal effect on O: lambsquarters,[13],1 (Herbicidal rate of 5% or more and less than 20%)
same,herbicidal effect on P: chickweed,[14],3 (Herbicidal rate of 40% or more and less than 70%)
same,herbicidal effect on R: persian speedwell,[15],0 (Herbicidal rate of 5% or less (almost no effect))
same,herbicidal effect on F: southern crabgrass (criteria 0-5),[16],0 (Herbicidal rate of 5% or less (almost no effect))
same,herbicidal effect on G: green foxtail (criteria 0-5),[17],3 (Herbicidal rate of 40% or more and less than 70%)
same,herbicidal effect on H: barnyard grass (criteria 0-5),[18],2 (Herbicidal rate of 20% or more and less than 40%)
same,herbicidal effect on I: wild oat (criteria 0-5),[19],0 (Herbicidal rate of 5% or less (almost no effect))
same,herbicidal effect on J: blackgrass (criteria 0-5),[20],0 (Herbicidal rate of 5% or less (almost no effect))
same,herbicidal effect on K: Italian ryegrass (criteria 0-5),[21],0 (Herbicidal rate of 5% or less (almost no effect))
same,herbicidal effect on L: windgrass (criteria 0-5),[22],4 (Herbicidal rate of 70% or more and less than 90%)
same,herbicidal effect on M: velvetleaf (criteria 0-5),[23],4 (Herbicidal rate of 70% or more and less than 90%)
same,herbicidal effect on N: redroot pigweed (criteria 0-5),[24],3 (Herbicidal rate of 40% or more and less than 70%)
same,herbicidal effect on O: lambsquarters (criteria 0-5),[25],3 (Herbicidal rate of 40% or more and less than 70%)
same,herbicidal effect on P: chickweed (criteria 0-5),[26],5 (Herbicidal rate of 90% or more (almost completely withered))
same,herbicidal effect on R: persian speedwell (criteria 0-5),[27],4 (Herbicidal rate of 70% or more and less than 90%)
